From patent US6613897B1, “Compounds having glucuronic acid derivatives and glucosamine derivative in the structure, process for producing the same and utilization thereof” (Maruha Corporation, priority 1998, dated 2003) come the findings set out here.

Where two headings read alike, the source gives them in different places.

Test [1] relates to bovine aortic vascular endothelial cells.
Experimental: A test was conducted to investigate the interaction of the compounds of the invention with vascular endothelial growth factor (VEGF). As the VEGF, human recombinant VEGF was used (Vascular Endothelial Growth Factor, Human, Recombinant, For Biochemical Use: a product of Wako Pure Chemical Industries).
The test was conducted in the same manner as in Example 12, but VEGF (final concentration 10 ng/mL) was added simultaneously with the addition of the compound. As comparative tests, a VEGF single addition test (a test in which only VEGF was added) and a negative control test (a test in which neither the compound nor VEGF was added) were performed. The effect on vascular endothelial cell growth was measured in the same way as in Example 12.
The vascular endothelial cell growth promoting action of each of the compounds was evaluated from the following equation:
Promoting rate (%)={(Increase in the BrdU uptake in the compound addition test)/(Increase in the BrdU uptake in the negative control test)}×100
For test [2] the test system is unchanged. The test can be described thus: Vascular endothelial cell growth promoting action (BrdU uptake). The format is cell-based. The following applies: 20 hours. The method, then: This test used bovine aortic vascular endothelial cells (passage number 3) as cells, and MEM containing 10% FCS (fetal calf serum), 100 units/mL penicillin G, and 100 μg/mL streptomycin as a culture medium. […] Culture was performed for 20 hours at 37° C. and 5% CO2, and then the effect of the compounds on vascular endothelial cell growth was measured using “Cell Growth ELISA, BrdU Color Development Kit” (Boehringer Mannheim) (uptake of 5-bromodeoxyuridine (BrdU) was adopted as an indicator).

Test [3] deals with rabbit platelet rich plasma. The following applies: read-out: 50% Inhibitory Concentration; collagen-induced platelet aggregation, rabbit PRP. The method, then:
Blood was taken from the rabbit aorta in an amount of 9 volumes of the blood per volume of a 3.8% aqueous solution of sodium citrate. The blood sample was immediately centrifuged (50×g, 10 min, room temperature) to obtain platelet rich plasma (PRP) as a supernatant. […] The mixture was held for 1 minute at 37° C., and then 10 μL of 10 μg/mL collagen (bovine tendon collagen: a product of Meiji Yakuhin) was added as an aggregation inducer. An aggregation curve was recorded for 7 minutes after addition.

Setting [4] is: compound concentration 0.1 μg/mL.
The mark [5] stands for this setting: compound concentration 0.5 μg/mL.
Where [6] appears, read: compound concentration 10 μg/mL.
Where [7] appears, read: compound concentration 0.1 μg/mL + VEGF 10 ng/mL.
The mark [8] stands for this setting: compound concentration 0.5 μg/mL + VEGF 10 ng/mL.
Where [9] appears, read: compound concentration 1 μg/mL + VEGF 10 ng/mL.
[10] abbreviates: compound concentration 5 μg/mL + VEGF 10 ng/mL.
Where [11] appears, read: compound concentration 10 μg/mL + VEGF 10 ng/mL.

As to VEGF, the Promoting rate in test [1] (VEGF added alone, 10 ng/mL (compound concentration 0)) amounted to 148.5%.

Take “4-deoxy-α-L-threo-hexa-4-enepyranuronosyl-(1→3)-O-2-acetamide-2-deoxy-β-D-glucopyranosyl-(1→4)-3-O-β-D-glucopyranuronitol [Compound Example 9]”: the Promoting rate is 102.8% in test [2] (setting [4]); 139.5% in test [2] (setting [5]); 180.3% in test [2] (compound concentration 1 μg/mL); 179.3% in test [2] (compound concentration 5 μg/mL); 133.4% in test [2] (setting [6]); 159.8% in test [1] (setting [7]). Also, the Promoting rate in test [1] (setting [8]) is given as 200.2%; in test [1] (setting [9]) it was 245.6%; in test [1] (setting [10]), 244.2%; in test [1] (setting [11]), 196.8%.

For the substance “4-deoxy-α-L-threo-hexa-4-enepyranuronosyl-(1→3)-O-2-acetamide-2-deoxy-β-D-glucopyranosyl-(1→4)-3-O-β-D-glucopyranuronosyl-(1→3)-O-2-acetamide-2-deoxy-β-D-glucopyranitol [Compound Example 5]”, the Promoting rate in test [2] (setting [4]) is on record as 101.1%; in test [2] (setting [5]), 144.2%; in test [2] (compound concentration 1 μg/mL), 182.7%; in test [2] (compound concentration 5 μg/mL) it was 169.9%; in test [2] (setting [6]) it was 141.1%; in test [1] (setting [7]) it was 160.9%. The Promoting rate in test [1] (setting [8]) came to 205.0%; in test [1] (setting [9]), 243.8%; in test [1] (setting [10]) it was 231.1%; in test [1] (setting [11]) it was 200.4%.

Take “4-deoxy-α-L-threo-hexa-4-enepyranuronosyl-(1→3)-O-2-acetamide-2-deoxy-β-D-glucopyranosyl-(1→4)-3-O-β-D-glucopyranuronic acid [Compound Example 7]”: the Promoting rate in test [2] (setting [4]) stood at 104.8%; in test [2] (setting [5]), 139.7%; in test [2] (compound concentration 1 μg/mL) it was 172.6%; in test [2] (compound concentration 5 μg/mL), 170.0%; in test [2] (setting [6]) it was 129.7%; in test [1] (setting [7]), 165.0%. Besides, the Promoting rate is on record as 206.2% in test [1] (setting [8]), 235.9% in test [1] (setting [9]), 228.7% in test [1] (setting [10]) and 191.3% in test [1] (setting [11]).

With “4-deoxy-α-L-threo-hexa-4-enepyranuronosyl-(1→3)-O-2-acetamide-2-deoxy-β-D-glucopyranosyl-(1→4)-3-O-β-D-glucopyranuronosyl-(1→3)-O-2-acetamide-2-deoxy-β-D-glucopyranosyl-(1→4)-3-O-β-D-glucopyranuronosyl-(1→3)-O-2-acetamide-2-deoxy-β-D-glucopyranitol [Compound Example 6]”, the IC50 in test [3] turned out to be 2.7 nM. The Promoting rate in test [2] (setting [4]) worked out at 100.5%; in test [2] (setting [5]) it was 143.8%; in test [2] (compound concentration 1 μg/mL), 167.9%; in test [2] (compound concentration 5 μg/mL) it was 168.8%; in test [2] (setting [6]), 142.2%; in test [1] (setting [7]), 159.8%. Besides, the Promoting rate in test [1] (setting [8]) is listed as 205.2%; in test [1] (setting [9]) it was 232.2%; in test [1] (setting [10]), 224.8%; in test [1] (setting [11]) it was 205.7%.

For the substance “4-deoxy-α-L-threo-hexa-4-enepyranuronosyl-(1→3)-O-2-acetamide-2-deoxy-β-D-glucopyranosyl-(1→4)-3-O-β-D-glucopyranuronosyl-(1→3)-O-2-acetamide-2-deoxy-β-D-glucopyranosyl-(1→4)-3-O-β-D-glucopyranuronic acid [Compound Example 8]”, the IC50 in test [3] was found to be 3.8 nM. The Promoting rate in test [2] (setting [4]) turned out to be 103.3%; in test [2] (setting [5]) it was 140.9%; in test [2] (compound concentration 1 μg/mL) it was 181.1%; in test [2] (compound concentration 5 μg/mL) it was 168.7%; in test [2] (setting [6]) it was 141.3%; in test [1] (setting [7]), 168.7%. For the same substance, the Promoting rate was found to be 202.9% in test [1] (setting [8]), 251.2% in test [1] (setting [9]), 224.9% in test [1] (setting [10]) and 199.2% in test [1] (setting [11]).

“4-deoxy-α-L-threo-hexa-4-enepyranuronosyl-(1→3)-O-2-acetamide-2-deoxy-β-D-glucopyranosyl-(1→4)-3-O-β-D-glucopyranuronosyl-(1→3)-O-2-acetamide-2-deoxy-β-D-glucopyranose [Compound Example 1]”: in test [3], the IC50 was determined as 2700 nM.

As for “4-deoxy-α-L-threo-hexa-4-enepyranuronosyl-(1→3)-O-2-acetamide-2-deoxy-β-D-glucopyranosyl-(1→4)-3-O-β-D-glucopyranuronosyl-(1→3)-O-2-acetamide-2-deoxy-β-D-glucopyranosyl-(1→4)-3-O-β-D-glucopyranuronosyl-(1→3)-O-2-acetamide-2-deoxy-β-D-glucopyranose [Compound Example 2]”, in test [3], the IC50 amounted to 3.2 nM.
